Laboratory results published in patent US12121521B2, “Uses of salt-inducible kinase (SIK) inhibitors for treating osteoporosis” (The General Hospital Corporation, priority 2016, dated 2024).
Entries after “also recorded” stand apart in the source; their conditions may differ.

Assays:
[1] = system: Ocy454 cells; experiment: Immunoblotting of Ocy454 cell lysates (HDAC4/5, CRTC2, SIK2 phosphorylation and localisation); assay type: cell-based, mouse; conditions: 10 uM, 90 minutes, compared to DMSO control; FIGS. 17 to 19
Method: The Ocy454 osteocyte cell line was treated for 90 minutes with the indicated compound at 10 uM dose (FIG. 17). Phospho-HDAC4 S246 levels were monitored by immunoblotting (top band) compared to DMSO control.
For all experiments, a single cell subclone of Ocy454 cells (17, 18) was used. Cells were passages in alpha-MEM supplemented with 10% heat-inactivated fetal bovine serum and 1% antibiotics (penicillin/streptomycin, Fungizone) at 33° C. with 5% CO2. Cells were plated at 50,000 cells/ml and allowed to reach confluency at 33° C. (typically in 2-3 days). At this point, cells were transferred to 37° C. for subsequent analysis. For immunoblotting, cells were always analyzed after culture at 37° C. for 7 days. For gene expression analysis, cells were analyzed after culture at 37° C. for 14 days. Mycoplasma contamination was ruled out by PCR. Cells were routinely assayed for SOST expression at 37° C. and examined for osteocytic morphology. […]

[2] = system: Ocy454 cells; experiment: RNA-seq of treated Ocy454 cells; assay type: cell-based, mouse
Method: The ability of YKL-05-093 to mimic the effects of PTH with respect to SOST and RANKL gene regulation supports the hypothesis that the actions of YKL-05-093 might mimic the effects of PTH on many genes. Therefore, RNA-seq was perfumed on Ocy454 cells treated for four hours with vehicle, PTH (1 nM), or YKL-05-093 (0.5 μM) to determine the overlap in global gene regulation by these two agents. […] Of the 446 PTH-regulated genes, 142 (32%) were co-regulated in the same direction by YKL-05-093 (FIGS. 6A and 6B and Table 3 for differentially expressed genes, and Table 4 for all RNA-seq data). This significant overlap was not due to random chance (FIGS. 15A and 15B). Gene ontology analysis for the genes regulated by both PTH and YKL-05-093 is shown in FIGS. 15C and 15D: many of the co-regulated genes fit into categories of interest such as “ossification” and “mesenchyme development”,
Total RNA was subjected to rRNA depletion using RiboZero kit (Illumina) followed by NGS library construction using NEBNext Ultra Directional RNA Library Prep Kit for Illumina (New England Biolabs). Experimental duplicates were performed for each condition. Sequencing was performed on Illumina HiSeq 2500 instrument, resulting in an average of 33 million pairs of 50 bp reads per sample. Sequencing reads were mapped to the mouse reference genome (mm10/GRCm38) using STAR (bioinformatics.oxfordjournals.org/content/early/2012/10/25/bioinformatics.bts635). Gene expression counts were calculated using HTSeq v.0.6.0 (www.huber.embl.de/users/anders/HITSeq/doc/overview.html) based on a current Ensembl annotation file for mm10/GRCm38 (release 75). Differential expression analysis was performed using EgdeR package based on the criteria of >2-fold change in expression value versus control and false discovery rates (FDR)<0.05. Venn diagrams from gene set analysis were generated using genes with >1.5 fold change in expression values and FDR <0.05. Significance testing for gene set overlap was performed according to a standard hypergeometric distribution, p-values <2.2*10^−16. The accession number for the RNA-seq dataset reporter in this paper is GEO: GSE76932 (www.ncbi.nlm.nih.gov/geo/query/acc.cgi?acc=GSE76932).

[3] = system: M-CSF+RANKL-primed osteoclastogenesis; experiment: Osteoclast differentiation of bone marrow-derived macrophages (TRAP); assay type: cell-based, murine; conditions: in vitro; read-out: IC50 of inhibition of M-CSF+RANKL-primed osteoclastogenesis
Method: Static and dynamic histomorphometry was performed (see FIG. 24). […] Effects on osteoclast differentiation were assessed by TRAP secretion assays and counting multi-nucleated TRAP-positive cells (see FIG. 26). M-CSF signaling in primary macrophages, was assessed by immunoblotting for MCSF-receptor Y723 phosphorylation and ERK1/2 phosphorylation (see FIG. 27).

Row | Structure (SMILES) | Phospho-HDAC4 S246 levels [1] | genes down-regulated by both PTH and YKL-05-093 [2] [genes] | genes down-regulated by the agent alone [2] [genes] | genes up-regulated by both PTH and YKL-05-093 [2] [genes] | genes up-regulated by the agent alone [2] [genes] | IC50 [3] [nM]
1 | COc1ccc(N2C(=O)N(c3c(C)cccc3C)Cc3cnc(Nc4ccc(C5CCN(C)CC5)c(OC)c4)nc32)c(OC)c1 [YKL-05-093] | showed clear activity with respect to reducing HDAC4 S246 levels; also recorded: most reproducibly led to reduced HDAC4 S246 phosphorylation | 45 | 59 | 97 | 56 | 
2 | COc1ccc(N2C(=O)N(c3c(C)cccc3Cl)Cc3cnc(Nc4ccc(C5CCN(C)CC5)cc4OC)nc32)nc1 [YKL-05-099] |  |  |  |  |  | 52
